# In patent publication US11753626B2, “Tumor cell suspension cultures and related methods” (Beijing Percans Oncology Co., Ltd., priority 2016, dated 2023):
# Tested on: tumor cell clusters from colorectal cancer patients
# Assay: ex vivo drug sensitivity assay of tumor cell clusters in suspension culture (Edu incorporation)
# Type: cell-based, human
# Conditions: FIG. 4; test conditions of FIG. 3B; short-term suspension culture in defined growth medium
# Description: Briefly, the non-tumor tissues and the necrotic fractions were carefully removed from the tumor specimen. The tumor tissues were cut into small pieces less than 1 mm in diameter using scissors. Minced tumor fractions were transferred into a sterile 100-ml triangle glass flask loaded with a magnet stir bar. A 10-15 ml digestion media containing 0.25 U/ml Liberase DH was added into the minced tumor tissues to start enzyme digestion. The enzyme mixture was incubated at 37° C. for 1-2 hours with moderate stirring. The partially digested tumor cell clusters were filtered through a 100-μm cell retainer. The filtrates were re-filtered through a 40-μm cell restrainer. The tumor cell clusters retained on the 40-μm cell restrainer was collected, wash twice with HBSS, then re-suspended in a defined growth media supplemented with cell growth factors and small molecule inhibitors.
# For ex vivo drug sensitivity assays, the tumor cell clusters were recovered in a defined growth medium overnight. The defined growth medium was StemPro hESC SFM supplement with Nicotinamide, Wnt3A, Noggin, R-spondin-1, and Y27632. The tumor cell clusters were then exposed to drug (e.g., Docetaxel at 2 μM (Cmax)) for 24 hours before the drug was washed away. Following exposure with drug, the tumor cell clusters were labeled with 5-ethynyl-2′-deoxyuridine (Edu) to assess the tumor cell proliferation rates. The labeling started at 48 hours after the drug exposure and continued for 96 hours. In the control group, tumor cell clusters received no drug exposure with media change, but were similarly labeled with Edu. The labeled tumor cell clusters were dissociated into single cells and fixed. The fixed cells were stained with Hoechst 33342 in PBS containing 0.2% Triton X-100 overnight at 4° C. The incorporated Edu was detected by Click-iT reaction where fixed cells were incubated with a reaction mixture containing 1× Click-iT Edu reaction buffer, CuSO4, and azide-conjugated Alexa Fluor dye in the dark. The stained cells were washed with PBS before being distributed into a black wall plate for image acquisition and analysis.
# For image acquisition and analysis, the stained tumor cells were imaged by a high-content screening (HCS) platform (Thermo Scientific Cellomics ArrayScan XTi HCS reader). The 10× objective was used to collect images. Twenty-five fields were imaged for each well, and more than 3000 cells were captured for the analysis. From the images two fluorescent signals were obtained from the HCS reader. Blue fluorescent signals recorded nucleus signals stained with Hoechst 33342, and green fluorescent signal detected the Edu incorporated in newly synthesized DNA. The Edu positive subpopulation cells percentage was calculated as percent of the total cell counts. […]
row,SMILES,growth of tumor cell clusters (inhibition by tested drug)
1,CNC(=O)c1cc(Oc2ccc(NC(=O)Nc3ccc(Cl)c(C(F)(F)F)c3)cc2)ccn1 [sorafenib],not completely inhibited
2,O=C1[O][Pt]2([NH][C@@H]3CCCC[C@H]3[NH]2)[O]C1=O [oxaliplatin],not completely inhibited
3,C#Cc1cccc(Nc2ncnc3cc(OCCOC)c(OCCOC)cc23)c1 [erlotinib],not completely inhibited
4,C[C@@H](Oc1cc(-c2cnn(C3CCNCC3)c2)cnc1N)c1c(Cl)ccc(F)c1Cl [crizotinib],not completely inhibited
